Laboratory results taken from patent US20060079453A1, “Hla binding peptides and their uses” (priority 2002, published 2006).
Read-outs that look alike come from different tables or passages of the source. No end group written: not given here.

Assays:
Experiment in all cases: biochemical
Format in all cases: binding
HLA-DR DRB1*1101 (DR11) = HLA-DR DRB1*1101 (DR11) (Homo sapiens, UniProt P01903+P01911, A100R/A169T/A87E/I96F/K41T/L162R/M171V/P40S/Q125H/Q178H/Q39Y/Q99D/R42S/S66Y/T262R/V115G/W38E)
HLA-DR DRB5*0101 (DR51) = HLA-DR DRB5*0101 (DR51) (Homo sapiens, UniProt P01903+Q30154)
HLA-DR DRB1*1501 (DR15) = HLA-DR DRB1*1501 (DR15) (Homo sapiens, UniProt P01903+P01911)
HLA-DR DRB1*0101 (DR1) = HLA-DR DRB1*0101 (DR1) (Homo sapiens, UniProt P01903+P01911, A100R/D57E/F55L/F60I/F76Y/I96L/L162R/M171V/P40L/Q125E/R42F/V115G/Y59C); conditions: DRB1 *0101
HLA-DR DRB1*0301 (DR3) = HLA-DR DRB1*0301 (DR3) (Homo sapiens, UniProt P01903+P01911, A100K/A102G/A103R/A169T/F55Y/I96L/K41T/L162R/M171V/P40S/Q125H/Q178H/Q39Y/R42S/S66N/T106N/T262R/W38E/Y61H)
Sequence of HLA-DR DRB1*0301 (DR3) (P01903 26-254 limits assumed, other chains not shown): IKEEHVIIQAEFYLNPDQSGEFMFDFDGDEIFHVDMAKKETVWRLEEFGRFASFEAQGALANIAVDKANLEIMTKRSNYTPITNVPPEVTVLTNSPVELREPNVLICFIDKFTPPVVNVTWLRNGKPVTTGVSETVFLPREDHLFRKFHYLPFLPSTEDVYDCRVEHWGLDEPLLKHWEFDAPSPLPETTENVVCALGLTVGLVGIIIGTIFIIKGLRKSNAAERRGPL

HLA-DR DRB1*0401 (DR4) = HLA-DR DRB1*0401 (DR4) (Homo sapiens, UniProt P01903+P01911, A100K/A169T/F76Y/I96L/K127E/L162R/M171V/N62H/P40V/Q125Y/R42H/S133A/S149N/S66Y/V115G/V209L/W38E)
HLA-DR DRB1*1302 (DR13) = HLA-DR DRB1*1302 (DR13) (Homo sapiens, UniProt P01903+P01911, A100E/A169T/K41T/L162R/M171V/P40S/Q125H/Q178H/Q39Y/Q99D/R42S/S66N/T262R/V115G/W38E/Y61H)
Sequence of HLA-DR DRB1*1302 (DR13) (P01903 26-254 limits assumed, other chains not shown): as above

HLA-DR DRB4*0101 (DR53) = HLA-DR DRB4*0101 (DR53) (Homo sapiens, UniProt P01903+P13762, G164S)
HLA-DR DRB1*0701 (DR7) = HLA-DR DRB1*0701 (DR7) (Homo sapiens, UniProt P01903+P01911, A100R/A102G/A103Q/D57E/D86V/E43K/F76Y/K127E/L162R/M171V/P40G/Q125H/Q99D/R33Q/R42Y/R54Q/S133A/S66F/T210M/V115G/Y107V/Y59L/Y89S)

Sequence of HLA-DR DRB1*1101 (DR11) (P01903 26-254 limits assumed, other chains not shown): as above

REYILDLHPEPTDLF
IC50 (HLA-DR DRB1*1101 (DR11); read-out: DRB1 *1101): 4.15 µM | IC50 (HLA-DR DRB5*0101 (DR51); read-out: DRB5 *0101): > 31.4 µM | IC50 (HLA-DR DRB1*1501 (DR15); read-out: DRBI *1501): > 33.1 µM

KSNFLNCYVSGFHPSD
IC50 (HLA-DR DRB1*0101 (DR1)): 2.5 µM | IC50 (HLA-DR DRB1*1101 (DR11); DRB1 *1101): 5 µM | IC50 (HLA-DR DRB1*0301 (DR3)): > 900 µM

AAAKAAAAAAYAA
IC50 (HLA-DR DRB1*0401 (DR4); DRB1 *0401): 0.229 µM | IC50 (HLA-DR DRB1*0301 (DR3)): > 900 µM

YNFACTELKLVYRDD
IC50 (HLA-DR DRB1*0101 (DR1)): 7.52 µM | IC50 (HLA-DR DRB1*1302 (DR13); DRBI *1302): 10.2 µM | IC50 (HLA-DR DRB1*0401 (DR4); DRB1 *0401): 1.98 µM | IC50 (HLA-DR DRB4*0101 (DR53); DRB4 *0101): 12.9 µM | IC50 (HLA-DR DRB1*0701 (DR7); DRB1 *0701): 2.87 µM | IC50 (HLA-DR DRB1*0301 (DR3)): 0.346 µM

LGFFPDHQLDPAFRANT
IC50 (HLA-DR DRB1*0301 (DR3); read-out: DRB1 *0301): 12 µM

ALLKNYGLLYCFRIW
IC50 (HLA-DR DRB1*1302 (DR13); read-out: DRBI *1302): 0.01 µM | IC50 (HLA-DR DRB1*1101 (DR11); read-out: DRB1 *1101): > 15.4 µM | IC50 (HLA-DR DRB1*1501 (DR15); read-out: DRBI *1501): 0.017 µM

ENEYATGAVRPFQAA
IC50 (HLA-DR DRB1*0101 (DR1)): 4.44 µM | IC50 (HLA-DR DRB1*1302 (DR13); DRBI *1302): 9.3 µM | IC50 (HLA-DR DRB1*0401 (DR4); DRB1 *0401): 0.281 µM | IC50 (HLA-DR DRB4*0101 (DR53); DRB4 *0101): 10 µM | IC50 (HLA-DR DRB1*0701 (DR7); DRB1 *0701): 4.97 µM | IC50 (HLA-DR DRB5*0101 (DR51); DRB5 *0101): > 10.3 µM | IC50 (HLA-DR DRB1*1501 (DR15); DRBI *1501): 3.01 µM

(16A)RQTTLKAAA
IC50 (HLA-DR DRB1*0401 (DR4); read-out: DRB1 *0401): 0.0013 µM | IC50 (HLA-DR DRB1*1101 (DR11); read-out: DRB1 *1101): 0.077 µM | IC50 (HLA-DR DRB5*0101 (DR51); read-out: DRB5 *0101): 4 µM

CC[C@H](C)[C@H](NC(=O)[C@H](C)NC(=O)[C@H](CCC(N)=O)NC(=O)[C@H](CCCNC(=N)N)NC(=O)[C@H](CC(C)C)NC(=O)[C@H](C)NC(=O)[C@@H](NC(=O)[C@H](Cc1c[nH]cn1)NC(=O)[C@H](Cc1c[nH]cn1)NC(=O)[C@@H]1CCCN1)[C@@H](C)O)C(=O)N[C@@H](CC(C)C)C(=O)N[C@@H](CO)C(=O)N[C@@H](Cc1c[nH]c2ccccc12)C(=O)NCC(=O)N[C@@H](CCC(=O)O)C(=O)N[C@@H](CC(C)C)C(=O)N[C@@H](CCSC)C(=O)N[C@H](C(=O)N[C@@H](CC(C)C)C(=O)N[C@@H](C)C(=O)O)[C@@H](C)O
IC50 (HLA-DR DRB4*0101 (DR53)): 0.048 µM | IC50 (HLA-DR DRB1*0701 (DR7)): 14.4 µM | IC50 (HLA-DR DRB1*1101 (DR11)): 3.12 µM | IC50 (HLA-DR DRB1*1501 (DR15)): 0.0053 µM

TVVYREGNPFGICKL
IC50 (HLA-DR DRB1*1302 (DR13); read-out: DRBI *1302): > 13.1 µM | IC50 (HLA-DR DRB1*1101 (DR11); read-out: DRB1 *1101): > 18 µM | IC50 (HLA-DR DRB5*0101 (DR51); read-out: DRB5 *0101): 48.8 µM

DPNANPNVDPNANPNVNANPNANPNANP(X4)QKWAAVVVPS
IC50 (HLA-DR DRB4*0101 (DR53); read-out: DRB4 *0101): > 72.5 µM | IC50 (HLA-DR DRB1*1101 (DR11); read-out: DRB1 *1101): > 12.5 µM | IC50 (HLA-DR DRB5*0101 (DR51); read-out: DRB5 *0101): > 2.9 µM | IC50 (HLA-DR DRB1*1501 (DR15); read-out: DRBI *1501): > 7.58 µM

MTLYQIQVMKRNQKQ
IC50 (HLA-DR DRB1*0101 (DR1)): 1.22 µM | IC50 (HLA-DR DRB1*1302 (DR13); DRBI *1302): 0.323 µM | IC50 (HLA-DR DRB1*0401 (DR4); DRB1 *0401): 0.117 µM | IC50 (HLA-DR DRB4*0101 (DR53); DRB4 *0101): 0.082 µM | IC50 (HLA-DR DRB1*0701 (DR7); DRB1 *0701): 31.1 µM | IC50 (HLA-DR DRB5*0101 (DR51); DRB5 *0101): 0.022 µM | IC50 (HLA-DR DRB1*1501 (DR15); DRBI *1501): 2.43 µM

YKSAHKGFKGVDAQGTLSKI
IC50 (HLA-DR DRB1*0101 (DR1)): 0.07 µM | IC50 (HLA-DR DRB1*0701 (DR7); DRB1 *0701): 0.108 µM | IC50 (HLA-DR DRB1*1101 (DR11); DRB1 *1101): 2 µM | IC50 (HLA-DR DRB5*0101 (DR51); DRB5 *0101): 1.33 µM | IC50 (HLA-DR DRB1*0301 (DR3)): > 900 µM

TCCYTCGTTVRLCIN
IC50 (HLA-DR DRB1*0401 (DR4); read-out: DRB1 *0401): 0.719 µM | IC50 (HLA-DR DRB1*0701 (DR7); read-out: DRB1 *0701): 0.063 µM | IC50 (HLA-DR DRB1*0301 (DR3); read-out: DRB1 *0301): 19.9 µM

LQDVVLELTPQTEID
IC50 (HLA-DR DRB1*0101 (DR1)): 1.49 µM | IC50 (HLA-DR DRB1*1302 (DR13); DRBI *1302): 1.14 µM | IC50 (HLA-DR DRB4*0101 (DR53); DRB4 *0101): 1.12 µM | IC50 (HLA-DR DRB1*0701 (DR7); DRB1 *0701): 5.67 µM | IC50 (HLA-DR DRB1*1101 (DR11); DRB1 *1101): > 31.6 µM | IC50 (HLA-DR DRB5*0101 (DR51); DRB5 *0101): > 31.4 µM | IC50 (HLA-DR DRB1*1501 (DR15); DRBI *1501): > 33.1 µM

VASLLTTAEVVVTEI
IC50 (HLA-DR DRB1*1302 (DR13); read-out: DRBI *1302): > 10.3 µM | IC50 (HLA-DR DRB4*0101 (DR53); read-out: DRB4 *0101): > 26.4 µM | IC50 (HLA-DR DRB1*1101 (DR11); read-out: DRB1 *1101): > 18.7 µM | IC50 (HLA-DR DRB5*0101 (DR51); read-out: DRB5 *0101): > 119 µM | IC50 (HLA-DR DRB1*1501 (DR15); read-out: DRBI *1501): > 50.8 µM
